Test [1] deals with T1, HDAC3 (Homo sapiens, UniProt O15379).
T1 construct: purchased BPS Biosciences
The experiment in a line: Individualized HDAC assay, HDAC3. Type of test: biochemical. The following applies: purified enzyme, 5 to 0.02 μM. How it is done:
The activity of the curcuphenol analogues was assessed with purified HDAC enzymes from all classes I, II, and IV, as well as a select member of HDAC class III (SIRT1). HDACs 1-9 and SIRT1 were evaluated using HDAC Fluorogenic Assay Kits (BPS Biosciences). All assays were completed in black-sided clear-bottom 96 well plates (PerkinElmer), and all treatments were plated in triplicates. Treatment started at 5 μM and was two-fold diluted to a concentration 0.02 μM. The assays were measured using the Synergy HI hybrid reader (BioTek) and Gen5 software (BioTek), excitation was set to 360 nm and detection was measured at 450 nm with a gain of 100. […] Luminescence was read 30 minutes after HDAC-Glo™I/II reagent was added using the Synergy HI hybrid reader (BioTek) and Gen5 software (Bio-Tek). […] The relative mean of activity of the HDAC being measured was determined and all wells that received treatment were divided this average, to give a percentage of activity.
To evaluate the effect of the compounds on specific HDACs, their activity was assessed with purified HDAC enzymes from all classes I, II, and IV, as well as a select member of HDAC class III (SIRT1). HDACs 1-9 and SIRT1 were evaluated using HDAC Fluorogenic Assay Kits (BPS Biosciences) following the manufacturer's recommendations. […] The assays were measured using the Synergy HI hybrid reader (BioTek) and Gen5 software (Bio-Tek). […]

For test [2], the target named is T2, HDAC11 (Homo sapiens, UniProt Q96DB2).
T2 construct: purchased BPS Biosciences
T2 sequence (Q96DB2 1-347): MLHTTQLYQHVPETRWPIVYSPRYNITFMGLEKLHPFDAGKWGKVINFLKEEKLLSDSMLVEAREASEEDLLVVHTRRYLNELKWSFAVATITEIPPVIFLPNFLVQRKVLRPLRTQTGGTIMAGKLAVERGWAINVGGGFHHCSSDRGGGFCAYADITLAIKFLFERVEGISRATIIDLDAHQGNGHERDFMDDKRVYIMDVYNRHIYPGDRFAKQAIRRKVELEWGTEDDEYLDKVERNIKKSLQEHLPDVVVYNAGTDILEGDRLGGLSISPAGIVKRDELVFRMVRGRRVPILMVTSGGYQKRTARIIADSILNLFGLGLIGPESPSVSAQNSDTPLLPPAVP
In words: Individualized HDAC assay, HDAC11 (HDAC-Glo). Type of test: biochemical. The following applies: purified enzyme, 5 to 0.02 μM. On the procedure: The activity of the curcuphenol analogues was assessed with purified HDAC enzymes from all classes I, II, and IV, as well as a select member of HDAC class III (SIRT1). HDACs 1-9 and SIRT1 were evaluated using HDAC Fluorogenic Assay Kits (BPS Biosciences). All assays were completed in black-sided clear-bottom 96 well plates (PerkinElmer), and all treatments were plated in triplicates. Treatment started at 5 μM and was two-fold diluted to a concentration 0.02 μM. The assays were measured using the Synergy HI hybrid reader (BioTek) and Gen5 software (BioTek), excitation was set to 360 nm and detection was measured at 450 nm with a gain of 100. Alternatively HDAC 10 and 11 (BPS Biosciences) were optimized for HDAC concentration using the HDAC-Glo™ I/II Assay and Screening System (Promega). Following optimization each HDAC was run following the Promega protocol in black-sided clear-bottomed 96 well plates in triplicates with same treatments listed above (PerkinElmer). Luminescence was read 30 minutes after HDAC-Glo™I/II reagent was added using the Synergy HI hybrid reader (BioTek) and Gen5 software (Bio-Tek). […] To calculate percent activity, the average of blank wells was subtracted from all treatment groups. The relative mean of activity of the HDAC being measured was determined and all wells that received treatment were divided this average, to give a percentage of activity.
To evaluate the effect of the compounds on specific HDACs, their activity was assessed with purified HDAC enzymes from all classes I, II, and IV, as well as a select member of HDAC class III (SIRT1). HDACs 1-9 and SIRT1 were evaluated using HDAC Fluorogenic Assay Kits (BPS Biosciences) following the manufacturer's recommendations. Compound treatment started at 5 μM and was two-fold diluted to a concentration 0.02 μM. […] The assays were measured using the Synergy HI hybrid reader (BioTek) and Gen5 software (Bio-Tek). […] To calculate the fold change in HDAC activity, the values from each treated well were divided by the relative mean of activity of the specific HDAC being measured.

In test [3] the test system is CD4+ and CD8+ T cells. In words: Analysis of tumour-infiltrating lymphocytes. The class given is in vivo, C57BL/6 mice. The conditions noted are these: after 12 days of treatment, flow cytometry. On the procedure:
The metastatic cell line, A9, was grown in the DMEM, as previously described without, the addition of antibiotics (penicillin and streptomycin, P/S). Once cells reached 75-80% confluence, they were trypsinized (0.05%, Gibco) and washed with HBSS (Hanks balanced salt solution). The cells were counted using the Bio-RAD TC20 automated cell counter and suspended to a concentration of […] in HBSS. Thirty-two synergistic female C57BL/6 mice, between the ages 6-8 weeks, were subcutaneously injected in the right flank with 50 μL containing 5×10^4 A9 metastatic tumour cells. Seven days following tumour inoculation i.p. treatment began daily for 12 days. Four treatment groups were studied, with eight animals per group. […] Body weights were measured three times a week and once tumours developed they were measured with calipers and tumour volume was calculated. Twelve days after starting treatment, mice were euthanized and tumours were collected and weighed. The tumours were then processed for flow cytometry analysis. Tumours were cut into small pieces and incubated RPMI (Gibco; with P/S 0.5%, Sodium pyruvate 1%, and L-glutamine 1%) and 3 mg/mL collagenase A (Roche) for one hour at 37° C. with shaking. Dissociated tumour cells were passed through a 100 μm filter and spun down at 15,000×RCF for 3 minutes. The pellet was washed once in FACs buffer (2% FBS in PBS) and spun down. The pellet was next suspended in red blood cell (RBC) lysis buffer and kept at room temperature for 5 minutes before being neutralized by the addition of 5 ml of PBS and spun down. If pellets were still found to contain RBCs this step was repeated. Once all RBCs were removed cells were suspended in FACs buffer to a concentration of 10^7 cells/mL. A total volume of 200 ul of cells from each tumour were added to a 96 well plate (Falcon) and incubated with Fc Blocker (Biolegend, 1:400) for twenty minutes at 4° C. The 96 well plate was spun down at 1,200 rmp for three minutes and supernatant was removed. The cells were then suspended in 150 ul of FACs buffer containing anti-CD8a (PE-Cy7, 1:200, eBioscience) and CD4 (APC, 1:200, Biolegend) antibodies and incubated at 4° Celsius for 20 minutes. The cells were washed twice and spun down using FACs buffer before being to flow cytometry tubes in a final volume of 200 ul of FACs buffer containing 7AAD (Biolegend 1:200). Flow cytometry was performed on LSRII (BDBiosciences) and analysis was done using FlowJo (Flow cytometry Analysis Software).
Analysis of tumour-infiltrating lymphocytes (TILs). Tumour-infiltrating T lymphocyte (either CD4^+ or CD8^+ T cells) infiltration was evaluated in tumours of mice following 2-week treatment with either compounds or controls. Tumours at the site of initial injection were removed from tumour-bearing mice. Following tumour dissociation in the presence of collagenase A (Roche) and erythrocyte lysis, the tumour cells were then washed and prepared as single-cell suspensions to detect TILs. Before staining with antibodies, the cells were incubated with Fc Blocker (Ebiosciences) for 20 minutes at 4° C. The tumour cells were then washed and stained with anti-CD4-APC (Biolegend), anti-CD8-PECy7 (eBiosciences) and 7-AAD (Biolegend) viability stain. Using flow cytometry, 7-AAD positive dead cells were gated out and the remaining population was assessed for CD4^+ and CD8^+ expression. Data were acquired using a BD™ LSR II flow cytometer (BD Biosciences) with FACSDiva™ software and analyzed with FlowJo software (Treestar).
In general terms: Flow cytometry measures light scatter and fluorescence of single cells or particles in a stream.

Entries after “also recorded” stand apart in the source; their conditions may differ.

We go through two molecules from US20220105051A1, “COMPOUNDS FOR INCREASING MHC-I EXPRESSION AND MODULATING HISTONE DEACETYLASE ACTIVITY” (Cava Healthcare Inc., priority 2019, published 2022).

T1 sequence (O15379 whole entry): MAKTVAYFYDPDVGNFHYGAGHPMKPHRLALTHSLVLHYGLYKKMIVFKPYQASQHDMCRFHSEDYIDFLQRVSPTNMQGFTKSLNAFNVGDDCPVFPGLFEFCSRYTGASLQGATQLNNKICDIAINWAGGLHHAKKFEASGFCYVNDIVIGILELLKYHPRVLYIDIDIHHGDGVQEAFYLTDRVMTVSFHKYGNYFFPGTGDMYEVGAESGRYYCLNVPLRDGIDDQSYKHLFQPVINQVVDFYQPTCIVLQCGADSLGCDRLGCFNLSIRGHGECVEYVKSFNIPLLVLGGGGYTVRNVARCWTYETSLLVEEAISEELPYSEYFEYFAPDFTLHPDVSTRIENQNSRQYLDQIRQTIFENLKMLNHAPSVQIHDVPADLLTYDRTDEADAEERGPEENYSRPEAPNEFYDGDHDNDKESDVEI
T1 sequence (Q9Y618 395-489 partner limits assumed): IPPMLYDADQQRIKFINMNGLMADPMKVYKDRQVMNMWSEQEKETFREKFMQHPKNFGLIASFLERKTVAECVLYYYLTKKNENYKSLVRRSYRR

Turning to `CC(C)=CCCCc1ccc(C)cc1O` [P02-113], the HDAC3 activity result in test [1] is reported as “no significant change in HDAC activity”. In addition, in test [2], the HDAC11 activity result was “unaffected; also recorded: no effect was observed; also recorded: no change in activity”. In addition, in test [3], the “CD4+ T cell infiltration of tumours” value is “no significant infiltration or difference; also recorded: did not appear to increase” and the “CD8+ T cell (CTL) infiltration of tumours” value was “no significant change in CTL infiltration”.
Take `COc1ccc(C(C)CCC=C(C)C)c(O)c1` (stereo not drawn) [P03-97-1]: the HDAC3 activity result in test [1] is “no significant change in HDAC activity”. Moreover, the HDAC11 activity entry in test [2] is “unaffected; also recorded: no change in activity”; in test [2] (listed as PO-3-97-1), “no effect was observed”. For the same molecule, in test [3], the “CD4+ T cell infiltration of tumours” value was “no significant infiltration or difference; also recorded: did not appear to increase”. Moreover, the “CD8+ T cell (CTL) infiltration of tumours” value in test [3] is recorded as “greatest CD8+ infiltration; also recorded: increase in the CTL infiltration”.
